The test system of this test is progressive prostatic cancer in stage 4 with confirmed bone metastasis.

Molecules are shown by their SMILES. Read-outs that look alike come from different tables or passages of the source.

In the case of `[HH]` [hydrogen gas, hydrogen], the PSA value came out at 12.74 ng/mL (about 1 month after suction started, hydrogen 6.6% by volume, 60 to 90 minutes/day, with bicalutamide, Flivas OD, initial 92.5); 7.53 ng/mL (about 2 months after suction started, with internal medicines, before the anticancer agent infusion); 1.69 ng/mL (about 12.5 months after suction started, with internal medicines, docetaxel infusions and hormone injections). For the same compound, for the setting “about 12 months after suction started, visually inspected, combined therapy”, the “shade densities at the parts of bone metastasis, whole body scintigraphy” value is “a half or less”.

The record behind these values is patent publication US20200078393A1, “COMPOSITION COMPRISING HYDROGEN GAS FOR SUPPRESSION OR PREVENTION OF CANCER METASTASIS” (MiZ Company Limited, priority 2018, published 2020).
